Results published in patent EP0415103A1, “2,3-Dihydro-1-(pyridinylamino)-indoles, a process for their preparation and their use as medicaments” (HOECHST-ROUSSEL PHARMACEUTICALS INCORPORATED, priority 1989, dated 1991).

Experiments:
extensor tonus = experiment: supramaximal electroshock (SES) assay (anticonvulsant activity); type: in vivo, male mouse; details: 30 minute pretreat, normalized relative to vehicle control
Method: The compounds of the invention are also useful as anticonvulsants due to their anticonvulsant activity in mammals. Anticonvulsant activity is measured in the male mouse using the supramaximal electroshock (SES) assay described in Arch. Int. Pharmacodyn. 92:97-107, 1952. In this procedure, groups of male mice are used. Drugs are prepared using distilled water and, if insoluble, a surfactant is added. Control animals receive vehicle. Drugs are routinely administered interperitoneally (i.p.). The dosage volume is 10 ml/kg. A primary screen is given a 30 minute pretreat. The animals' eyes are placed across the output terminals of an A.C. shocker that delivers 206 volts rms for 300 msec. Electrode paste coats the animals' eyes at the point of contact with the terminals. […] Protection is expressed as normalized percent inhibition relative to vehicle control.

[1] = tested on: phenyl-para-quinone induced writhing; experiment: phenyl-para-quinone writhing assay (analgesia); type: in vivo, mice; details: for % Inhibition of Writhing: 20 mg/kg s.c., mice
[2] = tested on: Scopolamine Induced Memory Deficit; experiment: Dark Avoidance Assay (reversal of scopolamine-induced memory deficit); type: in vivo; details: mice, retest after 24 hours
Method: In this assay, mice are tested for their ability to remember an unpleasant stimulus for a period of 24 hours. A mouse is placed in a chamber that contains a dark compartment; a strong incandescent light drives it to the dark compartment, where an electric shock is administered through metal plates on the floor. The animal is removed from the testing apparatus and tested again, 24 hours later, for the ability to remember the electric shock. If scopolamine, an anticholinergic that is known to cause memory impairment, is administered before an animal's initial exposure to the test chambers, the animal re-enters the dark compartment shortly after being placed in the test chamber 24 hours later. The effect of scopolamine is blocked by an active test compound, resulting in a greater interval before re-entry into the dark compartment. The results for an active compound are expressed as the percent of a group of animals in which the effect of scopolamine is blocked, as manifested by an increased interval between being placed in the test chamber and re-entering the dark compartment. The activity of some of the compounds of the instant invention in the assay are given below in Table 2.

CCCN(c1ccncc1)N1CCc2ccccc21.O=C(O)C(=O)O [2,3-Dihydro-N-propyl-N-(4-pyridinyl)-1H-indol-1-amine oxalate]
% Inhibition (extensor tonus; 10 mg/kg i.p.): -40% at 10 mg/kg i.p. | % Inhibition of Writhing [1]: 100% at 20 mg/kg

CC(=O)Oc1ccccc1C(=O)O [Aspirin, reference compound]
ED50 ([1]; Mus musculus, sc, read-out: ED₅₀ (subcutaneous dose at which 50% of the phenyl-para-quinone induced writhing is inhibited)): 32.8 mg/kg

c1ccc2c(c1)CCN2Nc1ccncc1 [2,3-Dihydro-N-(4-pyridinyl)-1H-indol-1-amine]
% Inhibition (extensor tonus; 15 mg/kg i.p.): -40% at 15 mg/kg i.p. | % of Animals With Scopolamine Induced Memory Deficit Reversal ([2]; 0.3 mg/kg s.c.): 53% | % Inhibition of Writhing [1]: 74% at 20 mg/kg

CC[C@@H]1C(=O)OC[C@@H]1Cc1cncn1C [Pilocarpine]
% of Animals With Scopolamine Induced Memory Deficit Reversal ([2]; 1.25 mg/kg s.c): 19%

CCC1(c2ccccc2)C(=O)NC(=O)NC1=O [Phenobarbital, reference compound]
% Inhibition (extensor tonus; 8.4 mg/kg i.p.): -50% at 8.4 mg/kg

Nc1c2c(nc3ccccc13)CCCC2 [Tacrine]
% of Animals With Scopolamine Induced Memory Deficit Reversal ([2]; 0.63 mg/kg s.c): 13%
